# Source: ChEMBL document CHEMBL1275481, “Mechanism and fitness costs of PR-39 resistance in Salmonella enterica serovar Typhimurium LT2” (2008)
# Active and inactive are the calls of the source. The calls are words filed in the database; no cut-off is given here.
# Experiments:
# Salmonella typhimurium [1] = experiment: Antimicrobial activity against PR-39-resistant Salmonella enterica serovar Typhimurium LT2 DA10899 harboring Q179Stop mutant gene by Etest; type: functional
# Salmonella typhimurium [2] = experiment: Antimicrobial activity against PR-39-resistant sbmA-deficient Salmonella enterica serovar Typhimurium LT2 DA12088 by Etest; type: functional
# Salmonella typhimurium [3] = experiment: Antimicrobial activity against PR-39-resistant Salmonella enterica serovar Typhimurium LT2 DA6192 by Etest; type: functional
# Salmonella typhimurium [4] = experiment: Antimicrobial activity against Salmonella enterica serovar Typhimurium LT2 by Etest; type: functional, Salmonella enterica subsp. enterica serovar Typhimurium
# Salmonella typhimurium [5] = experiment: Antimicrobial activity against Salmonella enterica serovar Typhimurium LT2 DA6192 by Etest; type: functional
# Salmonella typhimurium [6] = experiment: Antimicrobial activity against Salmonella enterica serovar Typhimurium LT2 DA10896 harboring sbmA T375K mutant gene by Etest; type: functional
# Salmonella typhimurium [7] = experiment: Antimicrobial activity against Salmonella enterica serovar Typhimurium LT2 DA10897 harboring sbmA W373Stop mutant gene by Etest; type: functional
# Salmonella typhimurium [8] = experiment: Antimicrobial activity against Salmonella enterica serovar Typhimurium LT2 DA10898 harboring deletion of bp 967 in sbmA gene by Etest; type: functional
# Salmonella typhimurium [9] = experiment: Antimicrobial activity against Salmonella enterica serovar Typhimurium LT2 DA10899 harboring sbmA Q179Stop mutant gene by Etest; type: functional
# Salmonella typhimurium [10] = experiment: Antimicrobial activity against Salmonella enterica serovar Typhimurium LT2 DA10902 harboring deletion of bp 843-844 in sbmA gene by Etest; type: functional
# Salmonella typhimurium [11] = experiment: Antimicrobial activity against Salmonella enterica serovar Typhimurium LT2 DA10905 harboring sbmA L379P mutant gene by Etest; type: functional
# Salmonella typhimurium [12] = experiment: Antimicrobial activity against Salmonella enterica serovar Typhimurium LT2 DA10907 harboring sbmA E287K mutant gene by Etest; type: functional
# Salmonella typhimurium [13] = experiment: Antimicrobial activity against Salmonella enterica serovar Typhimurium LT2 DA10912 harboring sbmA Y326C mutant gene by Etest; type: functional
# Salmonella typhimurium [14] = experiment: Antimicrobial activity against Salmonella enterica serovar Typhimurium LT2 DA10913 harboring sbmA C67Stop mutant gene by Etest; type: functional
# Salmonella typhimurium [15] = experiment: Antimicrobial activity against Salmonella enterica serovar Typhimurium LT2 DA10914 harboring sbmA S251L mutant gene by Etest; type: functional
# Salmonella typhimurium [16] = experiment: Antimicrobial activity against sbmA-deficient Salmonella enterica serovar Typhimurium LT2 DA12088 by Etest; type: functional
# Salmonella typhimurium [17] = experiment: Antimicrobial activity against sbmA-deficient Salmonella enterica serovar Typhimurium LT2 DA13090 harboring sbmA gene by Etest in presence of arabinose; type: functional
# Salmonella typhimurium [18] = experiment: Antimicrobial activity against Salmonella enterica serovar Typhimurium LT2 DA13088 harboring sbmA gene by Etest in presence of arabinose; type: functional
# Salmonella typhimurium [19] = experiment: Antimicrobial activity against Salmonella enterica serovar Typhimurium LT2 DA14344 harboring sbmA Q179Stop gene by Etest in presence of arabinose; type: functional
# Salmonella typhimurium [20] = experiment: Antimicrobial activity against Salmonella enterica serovar Typhimurium LT2 at 8 uM after 24 hrs; type: functional, organism-based; conditions: Salmonella enterica subsp. enterica serovar Typhimurium
# Salmonella typhimurium [21] = experiment: Antimicrobial activity against Salmonella enterica serovar Typhimurium LT2 DA10899 harboring Q179Stop mutant gene at 8 uM after 24 hrs; type: functional, organism-based; conditions: Salmonella enterica subsp. enterica serovar Typhimurium str. LT2
# Salmonella typhimurium [22] = experiment: Antimicrobial activity against sbmA-deficient Salmonella enterica serovar Typhimurium LT2 DA12088 at 8 uM after 24 hrs; type: functional, organism-based; conditions: Salmonella enterica subsp. enterica serovar Typhimurium str. LT2
# Salmonella typhimurium [23] = experiment: Antimicrobial activity against Salmonella enterica serovar Typhimurium LT2 at 16 uM after 24 hrs; type: functional, organism-based; conditions: Salmonella enterica subsp. enterica serovar Typhimurium
# Salmonella typhimurium [24] = experiment: Antimicrobial activity against Salmonella enterica serovar Typhimurium LT2 DA10899 harboring Q179Stop mutant gene at 16 uM after 24 hrs; type: functional, organism-based; conditions: Salmonella enterica subsp. enterica serovar Typhimurium str. LT2
# Salmonella typhimurium [25] = experiment: Antimicrobial activity against sbmA-deficient Salmonella enterica serovar Typhimurium LT2 DA12088 at 16 uM after 24 hrs; type: functional, organism-based; conditions: Salmonella enterica subsp. enterica serovar Typhimurium str. LT2
# Salmonella typhimurium [26] = experiment: Antimicrobial activity against sbmA-deficient Salmonella enterica serovar Typhimurium LT2 DA12088 assessed as log increase in survival rate at 4 uM after 24 hrs relative to wild type; type: functional
# Salmonella typhimurium [27] = experiment: Antimicrobial activity against sbmA-deficient Salmonella enterica serovar Typhimurium LT2 DA12088 assessed as log increase in survival rate at 8 uM after 24 hrs relative to wild type; type: functional
# Salmonella typhimurium [28] = experiment: Antimicrobial activity against sbmA-deficient Salmonella enterica serovar Typhimurium LT2 DA12088 assessed as log increase in survival rate at 16 uM after 24 hrs relative to wild type; type: functional
# [29] = Salmonella enterica subsp. enterica serovar Typhimurium str. LT2
molecule,measurement,setting,value
CC1(C)S[C@@H]2[C@H](NC(=O)[C@H](N)c3ccccc3)C(=O)N2[C@H]1C(=O)O [AMPICILLIN],MIC,Salmonella typhimurium [1],0.75 µg/mL
same,MIC,Salmonella typhimurium [2],0.75 µg/mL
same,MIC,Salmonella typhimurium [3],0.75 µg/mL
CC[C@H](C)[C@H](NC(=O)[C@H](CCCCN)NC(=O)[C@H](CCC(=O)O)NC(=O)[C@H](CCCCN)NC(=O)[C@H](CO)NC(=O)[C@H](CCCCN)NC(=O)[C@H](CCCNC(=N)N)NC(=O)[C@H](Cc1ccccc1)NC(=O)[C@H](Cc1ccccc1)NC(=O)[C@H](CC(=O)O)NC(=O)CNC(=O)[C@H](CC(C)C)NC(=O)[C@@H](N)CC(C)C)C(=O)NCC(=O)N[C@@H](CCCCN)C(=O)N[C@@H](CCC(=O)O)C(=O)N[C@@H](Cc1ccccc1)C(=O)N[C@@H](CCCCN)C(=O)N[C@@H](CCCNC(=N)N)C(=O)N[C@H](C(=O)N[C@H](C(=O)N[C@@H](CCC(N)=O)C(=O)N[C@@H](CCCNC(=N)N)C(=O)N[C@H](C(=O)N[C@@H](CCCCN)C(=O)N[C@@H](CC(=O)O)C(=O)N[C@@H](Cc1ccccc1)C(=O)N[C@@H](CC(C)C)C(=O)N[C@@H](CCCNC(=N)N)C(=O)N[C@@H](CC(N)=O)C(=O)N[C@@H](CC(C)C)C(=O)N[C@H](C(=O)N1CCC[C@H]1C(=O)N[C@@H](CCCNC(=N)N)C(=O)N[C@H](C(=O)N[C@@H](CCC(=O)O)C(=O)N[C@@H](CO)C(=O)O)[C@@H](C)O)C(C)C)[C@@H](C)CC)C(C)C)[C@@H](C)CC [CATHELICIDIN],MIC,Salmonella typhimurium [1],66 µg/mL
same,MIC,Salmonella typhimurium [2],66 µg/mL
same,MIC,Salmonella typhimurium [3],66 µg/mL
CO/N=C(\C(=O)N[C@@H]1C(=O)N2C(C(=O)[O-])=C(C[N+]3(C)CCCC3)CS[C@H]12)c1csc(N)n1 [CEFEPIME],MIC,Salmonella typhimurium [1],0.064 µg/mL
same,MIC,Salmonella typhimurium [2],0.064 µg/mL
same,MIC,Salmonella typhimurium [3],0.064 µg/mL
COCC1=C(C(=O)O)N2C(=O)[C@@H](NC(=O)/C(=N\OC)c3csc(N)n3)[C@H]2SC1 [CEFPODOXIME],MIC,Salmonella typhimurium [1],0.38 µg/mL
same,MIC,Salmonella typhimurium [2],0.38 µg/mL
same,MIC,Salmonella typhimurium [3],0.38 µg/mL
CO/N=C(\C(=O)N[C@@H]1C(=O)N2C(C(=O)O)=C(COC(N)=O)CS[C@H]12)c1ccco1 [CEFUROXIME],MIC,Salmonella typhimurium [1],4 µg/mL
same,MIC,Salmonella typhimurium [2],4 µg/mL
same,MIC,Salmonella typhimurium [3],4 µg/mL
CC(=O)OCC1=C(C(=O)O)N2C(=O)[C@@H](NC(=O)Cc3cccs3)[C@H]2SC1 [CEPHALOTHIN],MIC,Salmonella typhimurium [1],3 µg/mL
same,MIC,Salmonella typhimurium [2],3 µg/mL
same,MIC,Salmonella typhimurium [3],3 µg/mL
O=C(N[C@H](CO)[C@H](O)c1ccc([N+](=O)[O-])cc1)C(Cl)Cl [CHLORAMPHENICOL],MIC,Salmonella typhimurium [1],4 µg/mL
same,MIC,Salmonella typhimurium [2],4 µg/mL
same,MIC,Salmonella typhimurium [3],4 µg/mL
O=C(O)c1cn(C2CC2)c2cc(N3CCNCC3)c(F)cc2c1=O [CIPROFLOXACIN],MIC,Salmonella typhimurium [1],0.008 µg/mL
same,MIC,Salmonella typhimurium [2],0.008 µg/mL
same,MIC,Salmonella typhimurium [3],0.008 µg/mL
NC[C@H]1O[C@H](O[C@H]2[C@H](O)[C@@H](O[C@H]3O[C@H](CO)[C@@H](O)[C@H](N)[C@H]3O)[C@H](N)C[C@@H]2N)[C@H](O)[C@@H](O)[C@@H]1O [KANAMYCIN],MIC,Salmonella typhimurium [1],1.5 µg/mL
same,MIC,Salmonella typhimurium [2],1.5 µg/mL
same,MIC,Salmonella typhimurium [3],1.5 µg/mL
CCn1cc(C(=O)O)c(=O)c2ccc(C)nc21 [NALIDIXIC ACID],MIC,Salmonella typhimurium [1],4 µg/mL
same,MIC,Salmonella typhimurium [2],4 µg/mL
same,MIC,Salmonella typhimurium [3],4 µg/mL
O=C1CN(/N=C/c2ccc([N+](=O)[O-])o2)C(=O)N1 [NITROFURANTOIN],MIC,Salmonella typhimurium [1],8 µg/mL
same,MIC,Salmonella typhimurium [2],8 µg/mL
same,MIC,Salmonella typhimurium [3],8 µg/mL
CN[C@@H]1[C@H](O[C@H]2[C@H](O[C@H]3[C@H](O)[C@@H](O)[C@H](N=C(N)N)[C@@H](O)[C@@H]3N=C(N)N)O[C@@H](C)[C@]2(O)C=O)O[C@@H](CO)[C@H](O)[C@H]1O [STREPTOMYCIN],MIC,Salmonella typhimurium [1],3 µg/mL
same,MIC,Salmonella typhimurium [2],3 µg/mL
same,MIC,Salmonella typhimurium [3],3 µg/mL
CN(C)[C@@H]1C(O)=C(C(N)=O)C(=O)[C@@]2(O)C(O)=C3C(=O)c4c(O)cccc4[C@@](C)(O)[C@H]3C[C@@H]12 [TETRACYCLINE],MIC,Salmonella typhimurium [1],3 µg/mL
same,MIC,Salmonella typhimurium [2],3 µg/mL
same,MIC,Salmonella typhimurium [3],3 µg/mL
BLEOMYCIN,MIC,Salmonella typhimurium [1]; [29],1.8 µg/mL
same,MIC,Salmonella typhimurium [2]; [29],1.8 µg/mL
same,MIC,Salmonella typhimurium [3]; [29],0.4 µg/mL
COLISTIN,MIC,Salmonella typhimurium [1]; [29],0.5 µg/mL
same,MIC,Salmonella typhimurium [2]; [29],0.5 µg/mL
same,MIC,Salmonella typhimurium [3]; [29],0.5 µg/mL
H-GLLRKGGEKIGEKLKKIGQKIKNFFQKLVPQPEQ-OH,MIC,Salmonella typhimurium [1],32 µg/mL
same,MIC,Salmonella typhimurium [2],32 µg/mL
same,MIC,Salmonella typhimurium [3],32 µg/mL
H-GLVRKGGEKFGEKLRKIGQKIKEFFQKLALEIEQ-OH,MIC,Salmonella typhimurium [1],23 µg/mL
same,MIC,Salmonella typhimurium [2],30 µg/mL
same,MIC,Salmonella typhimurium [3],23 µg/mL
H-RRRPRPPYLPRPRPPPFFPPRLPPRIPPGFPPRFPPRFP-NH2,MIC,Salmonella typhimurium [4],3 µM
same,MIC,Salmonella typhimurium [5],2 µM
same,MIC,Salmonella typhimurium [6],6 µM
same,MIC,Salmonella typhimurium [7],7 µM
same,MIC,Salmonella typhimurium [8],7 µM
same,MIC,Salmonella typhimurium [9],6 µM
same,MIC,Salmonella typhimurium [10],7 µM
same,MIC,Salmonella typhimurium [11],7 µM
same,MIC,Salmonella typhimurium [12],7 µM
same,MIC,Salmonella typhimurium [13],5 µM
same,MIC,Salmonella typhimurium [14],7 µM
same,MIC,Salmonella typhimurium [15],7 µM
same,MIC,Salmonella typhimurium [16],6 µM
same,MIC,Salmonella typhimurium [17],3 µM
same,MIC,Salmonella typhimurium [18],1.5 µM
same,MIC,Salmonella typhimurium [19],3 µM
same,Activity,Salmonella typhimurium [20],inactive
same,Activity,Salmonella typhimurium [21],inactive
same,Activity,Salmonella typhimurium [22],inactive
same,Activity,Salmonella typhimurium [23],inactive
same,Activity,Salmonella typhimurium [24],inactive
same,Activity,Salmonella typhimurium [25],inactive
same,FC,Salmonella typhimurium [26],4
same,FC,Salmonella typhimurium [27],4
same,FC,Salmonella typhimurium [28],4
same,MIC,Salmonella typhimurium [1],28 µg/mL
same,MIC,Salmonella typhimurium [2],28 µg/mL
same,MIC,Salmonella typhimurium [3],8.5 µg/mL
